Results reported in publication PMC9925730, “Controlled sequential in situ self-assembly and disassembly of a fluorogenic cisplatin prodrug for cancer theranostics” (Nature Communications, 2023).
Where “and” joins values, the source holds several entries; their conditions need not be identical. Identical values can stand only once.

Experiments:
HeLa cells = assay: ICP-OES analysis of Pt in HeLa cells (uptake); assay type: cell-based; conditions: for Amount of Pt / Total amount of Pt: Supplementary Table S1
Procedure: Supplementary Table 1. ICP-OES analysis of Pt in HeLa cells. a Pt drugs Pt element per cell Percentage of Pt element […]
a HeLa cells were untreated or pre-treated with Na3VO4 (10 mM) for 20 min and then incubated with indicated Pt drug (10 μM) for 1 h. Then, the cells were trypsinized, collected, and the cell numbers were counted and digested with trace metal concentrated HNO3 (65~70%) and HCl (36~38%). The amount of Pt element was determined by […]
b Pt per cell represents the average amount of Pt element in one HeLa cell, which was calculated by dividing the total amount of Pt element in cells by the cell number. c Percentage of Pt taken up by cells was calculated by dividing the total amount of Pt elements in cells by the amount of Pt drugs added. Values denote mean ± s.d. (n = 3 independent experiments). […]
The cell […]
lysates were separated according to a reported fragmentation procedure to obtained different cell fractions: pellet sample N (nuclei) was separated by 600 g for 10 min; pellet sample L (lysosomes and mitochondria) separated by 15000 g for 5 min; pellet sample M (plasma membrane) separated 100000g for 60 min and the remaining supernatant was soluble portion cytoplasm named as cell pellet C (cytosol) Pellets N, L, and M were all re-dispersed in 200 μL of D.I. water. Then, the solutions were collected and dropped on a carbon-coated copper grid, followed by freeze-drying respectively. The samples were then examined in a JEM-2800 Transmission Electron […]
Quantitative analysis of Pt in HeLa cells and different subcellular organelles. HeLa […]
cells were seeded in 10-cm dishes at a density of 4×10^6 cells/well and allowed to grow overnight. The cells were incubated with P-CyPt (10 μM), PtIVNPs (10 μM) and CDDP (10 μM) for 1 h, respectively. In P-CyPt + Na3VO4 group, HeLa cells were first incubated with Na3VO4 (10 mM) for 20 min, and then incubated with P-CyPt (10 μM) for another 60 min. After being washed with PBS for three times, the cells were trypsinized, centrifuged and counted. For Pt distribution analysis, the cells were treated with P-CyPt (10 μM) or CDDP (10 μM) for 1 h, and then washed with PBS for three times, followed by incubation with fresh medium for another 24 h. After that, cells were washed gently with 2 mL PBS once. The cells were trypsinized, centrifuged and counted. The cell lysates were separated according to a reported fragmentation procedure to obtained different cell fractions, including N (nuclei), M (plasma membrane), L (lysosomes and mitochondria) and C (cytosol). The Cells and different cell fractions were digested with concentrated HNO3 (65~70%) and HCl (36~38%) at 90 °C for 24 h. The solution was diluted to 5 mL 2% HNO3 and 5% HCl solution, and the concentration of Pt element was measured by ICP-OES, which was further applied to calculate the amount of Pt in cells and subcellular organelles.
Flow cytometry analysis of HeLa cell death. Approximately 2×10^5 cells/well HeLa cells in 2 mL DMEM medium were seeded onto 6-well plates and allowed to grow overnight. The medium was replaced with 1 mL of fresh medium containing P-CyPt (20 μM), PtIVNPs (20 μM) and CDDP (20 μM), respectively. After 2 h incubation, medium was removed and cells were washed with PBS for three times. Then, cells were incubated with fresh medium for another 48 h to induce different levels of apoptosis.
After gentle washing with PBS (×1), the cells were detached from the plates with trypsin (500 μL per well), and the cell pellets were collected after centrifugation at […] at 4 °C for 4 min. After washing with PBS, the pellets were re-suspended in 500 μL PBS buffer and stained with the annexin V-FITC/PI double staining apoptosis detection kit for flow cytometry. All assays were performed according to the manufacturer instructions, and the cell population was analyzed by annexin V-FITC and PI channels. The count number for each flow cytometry analysis was ~5000 to […]

[1] = Urine and faeces analysis by HPLC (mCy-containing compounds); assay type: in vivo, mice; design: mCy in urine: unit not given beside the values; conditions: for percentage excreted to the faeces (HPLC) / percentage excreted to the urine (HPLC): after i.v. P-CyPt
[2] = test system: orthotopic HepG2/Luc liver tumors; assay: Chemotherapy of orthotopic liver tumors (BL imaging, ex vivo BL and FL imaging); assay type: in vivo, mice;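 as to tumor BL intensity of liver: bioluminescence quantified by ROI over liver region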
Procedure: During the treatment, the body weights of mice were also measured every three days. On day 15, all mice were sacrificed, the whole liver were excised and photographed. Then, P-CyPt (10 μM) and D-luciferin (5 mM) were sprayed on the surface of each liver to performed ex vivo BL and NIR FL imaging. The BL images were acquired at 10 min using the BL imaging mode (Open), and the NIR FL images were acquired at 30 min, using a 660 nm excitation filter and a 750 ± 50 nm emission filter. The average BL and FL intensities were quantified by the ROIs measurement in the tumor region of liver using the Living Image Software (4.5.2, PerkinElmer, MA, U.S.A). Each experiment was conducted in four mice.

[3] = Time period 0-2 h, individual mice, matrix and injected agent not given
[4] = Time period 0-2 h, mean of 3 mice, matrix and injected agent not given
[5] = Time period 2-4 h, individual mice
[6] = Time period 2-4 h, mean of 3 mice
[7] = Time period 4-8 h, individual mice
[8] = Time period 4-8 h, mean of 3 mice
[9] = Time period 8-12 h, mean of 3 mice

Compound: CC1(C)C(/C=C/C2=C3Oc4cc(OP(=O)(O)O)c(Cl)cc4C=C3CCC2)=[N+](CCCNC(=O)[C@@H](Cc2ccccc2)NC(=O)[C@@H](Cc2ccccc2)NC(=O)CCC(=O)[O][Pt]([NH2])([NH2])([OH])([Cl])[Cl])c2ccccc21 [P-CyPt]
- Pt element per cell (HeLa cells; HeLa cells, Pt drug 10 μM, 1 h, ICP-OES): 24.60 ± 3.5 fmol/cell
- Percentage of Pt element taken up by cells (HeLa cells; HeLa cells, Pt drug 10 μM, 1 h, of Pt drug added): 36.9 ± 5.3%
- Amount of Pt (HeLa cells; individual samples): 20.8193 fmol/cell and 25.1404 fmol/cell and 27.8508 fmol/cell
- Total amount of Pt (HeLa cells; individual samples): 31.255% and 37.742% and 41.811%
- Amount of Pt (HeLa cells; mean of 3 samples): 24.6035 fmol/cell
- Total amount of Pt (HeLa cells; mean of 3 samples): 36.936%
- mCy in urine ([1]; Fig.6e, 0-2 h, mean of 3 mice): 12.76
- mCy in urine ([1]; Fig.6e, 0-2 h, single mice): 12.5823 and 14.2325 and 11.4685
- mCy in urine ([1]; Fig.6e, 2-4 h, mean of 3 mice): 12.43
- mCy in urine ([1]; Fig.6e, 2-4 h, single mice): 12.5615 and 13.5939 and 11.1324
- mCy in urine ([1]; Fig.6e, 4-8 h, mean of 3 mice): 12.56
- mCy in urine ([1]; Fig.6e, 4-8 h, single mice): 12.5588 and 13.6118 and 11.5060
- mCy in urine ([1]; Fig.6e, 8-12 h, mean of 3 mice): 7.02
- mCy in urine ([1]; Fig.6e, 8-12 h, single mice): 7.0621 and 8.1416 and 5.8422
- mCy in urine ([1]; Fig.6f, 0-2 h, mean of 3 mice): 0.53
- mCy in urine ([1]; Fig.6f, 0-2 h, single mice): 0.4663 and 0.7332 and 0.3884
- mCy in urine ([1]; Fig.6f, 2-4 h, mean of 3 mice): 6.03
- mCy in urine ([1]; Fig.6f, 2-4 h, single mice): 6.1714 and 7.3564 and 4.5750
- mCy in urine ([1]; Fig.6f, 4-8 h, mean of 3 mice): 21.29
- mCy in urine ([1]; Fig.6f, 4-8 h, single mice): 22.9482 and 23.3466 and 17.5729
- mCy in urine ([1]; Fig.6f, 8-12 h, mean of 3 mice): 9.19
- mCy in urine ([1]; Fig.6f, 8-12 h, single mice): 7.4602 and 10.7840 and 9.3353
- Compound found in excreta (%), Supplementary Table S5 [1, 3]: 11.1327% and 12.5928% and 10.1473%
- Compound found in excreta (%), Supplementary Table S6 [1, 3]: 0.3965% and 0.6235% and 0.3303%
- Compound found in excreta (%), Supplementary Table S5 [1, 4]: 11.29%
- Compound found in excreta (%), Supplementary Table S6 [1, 4]: 0.45%
- Compound found in excreta (%), Supplementary Table S5 [1, 5]: 5.17% and 5.5947% and 4.582%
- Compound found in excreta (%), Supplementary Table S6 [1, 5]: 4.641% and 5.532% and 3.44%
- Compound found in excreta (%), Supplementary Table S5 [1, 6]: 5.12%
- Compound found in excreta (%), Supplementary Table S6 [1, 6]: 4.54%
- Compound found in excreta (%), Supplementary Table S5 [1, 7]: 4.333% and 4.696% and 3.97%
- Compound found in excreta (%), Supplementary Table S6 [1, 7]: 0.5705% and 0.5804% and 0.4369%
- Compound found in excreta (%), Supplementary Table S5 [1, 8]: 4.33%
- Compound found in excreta (%), Supplementary Table S6 [1, 8]: 0.53%
- Compound found in excreta (%), Supplementary Table S5 [1, 9]: 1.41%
- Compound found in excreta (%), Supplementary Table S6 [1, 9]: 0.06%
- percentage excreted to the faeces (HPLC) ([1]; 2-4 h): 4.54± 1.05% and ~ 4.5%
- percentage excreted to the urine (HPLC) ([1]; 2-4 h): 5.12 ± 0.51%
- percentage excreted to the faeces (HPLC) ([1]; 4-8 h): 0.53 ± 0.080%
- percentage excreted to the urine (HPLC) ([1]; 4-8 h): 4.33 ± 0.055%
- percentage excreted to the faeces (HPLC) ([1]; 8-12 h): 0.059 ± 0.011%
- percentage excreted to the urine (HPLC) ([1]; 8-12 h): 1.41 ± 0.23%
- mCy-containing compounds excreted via hepatobiliary system ([1]; over 12 h, of injected dose): ~ 37.0%
- mCy-containing compounds excreted via renal system ([1]; over 12 h, of injected dose): ~ 44.8%
- tumor BL over the course of treatment ([2]; 2.25 mg kg^−1 Pt i.v. on day 0, 3, 6, 9, 12): did not obviously increase
- tumor BL intensity of liver ([2]; day 15): 9376.5
- metastatic tumor foci in the livers ([2]; day 15, ex vivo BL imaging): No metastatic tumor foci
- Normalized FL intensity of mCy (ex vivo liver tumor, Fig. 5h) ([2]; day 15, livers sprayed with P-CyPt 10 μM, normalized to PBS group): 0.23
- Normalized BL intensity (ex vivo liver tumor, Fig. 5h) ([2]; day 15, normalized to PBS group): 0.22
